These results are taken from ChEMBL document CHEMBL1121752, “Cell-specific ligands for selective drug delivery to tissues and organs” (J Med Chem, 1981).

Assay [1] is described as follows: Compound was evaluated for the inhibition of [125I]-labeled D-mannose-bovine serum albumin binding to alveolar macrophages. On the set-up: species or system Rattus norvegicus.
For assay [2], the species on record is Rattus norvegicus. In words: Compound was evaluated for the inhibition of [125I]-labeled D-mannose-bovine serum albumin binding to alveolar macrophages at 50 uM.
Assay [3] is filed under the species Rattus norvegicus. In words: Compound was evaluated for the inhibition of [125I]-labeled D-mannose-bovine serum albumin binding to alveolar macrophages at 10 uM.
For assay [4], the species on record is Rattus norvegicus. In words: Compound was evaluated for the inhibition of [125I]-labeled D-mannose-bovine serum albumin binding to alveolar macrophages at 100 uM.

In general, Ki refers to a dissociation constant, usually derived from enzyme kinetics or from competition with a known ligand. Lower therefore signals a stronger hold on the target. As usually defined, the inhibition is the percentage by which the read-out fell short of the control. Read a high inhibition as a strong effect.

For `O=C(CCSC1OC(CO)C(O)C(O)C1O)NCCCCC(NC(=O)[C@@H](CCCCNC(=O)CCSC1OC(CO)C(O)C(O)C1O)NC(=O)CCSC1OC(CO)C(O)C(O)C1O)C(=O)NCCCCCCNC(=O)CCc1ccc(O)cc1` (stereo partly specified), the Ki in assay [1] was determined as 9.3 µM.
Still for that read-out and setting: the same measure for `O=C(CCSC1OC(CO)C(O)C(O)C1O)NCCCC[C@H](NC(=O)CCSC1OC(CO)C(O)C(O)C1O)C(=O)O` (stereo partly specified): 7.7 µM; for `O=C(CCSC1OC(CO)C(O)C(O)C1O)NCCCC[C@@H](NC(=O)CCSC1OC(CO)C(O)C(O)C1O)C(=O)O` (stereo partly specified): 6.2 µM.
`CC(=O)C(CCCC/N=C(/N)CSC1OC(CO)C(O)C(O)C1O)NC(=O)[C@@H](CCCC/N=C(\N)CSC1OC(CO)C(O)C(O)C1O)/N=C(\N)CSC1OC(CO)C(O)C(O)C1O` (stereo partly specified) yielded a Ki in assay [1] of 6 µM.
The same measure, in the same setting: the same measure for `O=C(CCSC1OC(CO)C(O)C(O)C1O)NCCCCC(NC(=O)[C@@H](CCCCNC(=O)CCSC1OC(CO)C(O)C(O)C1O)NC(=O)CCSC1OC(CO)C(O)C(O)C1O)C(=O)O` (stereo in doubt; 14) [listing 1 of 2 here]: 3.9 µM.
Regarding `O=C(CSC1OC(CO)C(O)C(O)C1O)NCCCCC(NC(=O)[C@@H](CCCCNC(=O)CSC1OC(CO)C(O)C(O)C1O)NC(=O)CSC1OC(CO)C(O)C(O)C1O)C(=O)O` (stereo partly specified), the inhibition in assay [2] came to 68%; in assay [3], 27%; in assay [4] it was 81%.
Consider `CC1OC(SCCC(=O)NCCCCC(NC(=O)[C@@H](CCCCNC(=O)CCSC2OC(C)C(O)C(O)C2O)NC(=O)CCSC2OC(C)C(O)C(O)C2O)C(=O)O)C(O)C(O)C1O` (stereo partly specified), for which the inhibition in assay [3] is 9%; in assay [4], 45%.
`O=C(CCSC1OC(CO)C(O)C(O)C1O)NCCCCC(NC(=O)[C@@H](CCCCNC(=O)CCSC1OC(CO)C(O)C(O)C1O)NC(=O)CCSC1OC(CO)C(O)C(O)C1O)C(=O)O` (stereo in doubt; 14) [listing 2 of 2 here]: the inhibition was 81% in assay [2], 43% in assay [3] and 89% in assay [4].
For the compound `NCCCCCCNC(=O)C(CCCCNC(=O)CCSC1OC(CO)C(O)C(O)C1O)NC(=O)[C@@H](CCCCNC(=O)CCSC1OC(CO)C(O)C(O)C1O)NC(=O)CCSC1OC(CO)C(O)C(O)C1O` (stereo partly specified), in assay [1], the affinity, expressed as Ki, was 8 µM. For the same compound, in assay [4], the inhibition was determined as 5%.
Consider `N/C(CSC1OC(CO)C(O)C(O)C1O)=N\CCCC[C@@H](/N=C(\N)CSC1OC(CO)C(O)C(O)C1O)C(=O)O` (stereo partly specified), for which, in assay [1], the inhibition constant Ki came to 100 µM.
On to `O=C(CCSC1OC(CO)C(O)C(O)C1O)NCCCCC(NC(=O)[C@@H](CCCCNC(=O)CCSC1OC(CO)C(O)C(O)C1O)NC(=O)CCSC1OC(CO)C(O)C(O)C1O)C(=O)O` (stereo in doubt; 31), for which the inhibition in assay [2] was 0%; in assay [3], 0%; in assay [4], 2%.
As for `CC(C)CCCC(C)C1CCC2C3CC=C4CC(OCCCCCCNC(=O)C(CCCCNC(=O)CCSC5OC(CO)C(O)C(O)C5O)NC(=O)[C@@H](CCCCNC(=O)CCSC5OC(CO)C(O)C(O)C5O)NC(=O)CCSC5OC(CO)C(O)C(O)C5O)CCC4(C)C3CCC12C` (stereo partly specified), in assay [1], the Ki stood at 4 µM.
With `O=C(CCSC1OC(CO)C(O)C(O)C1O)NCCCCC(NC(=O)C(CCCCNC(=O)CCSC1OC(CO)C(O)C(O)C1O)NC(=O)[C@@H](CCCCNC(=O)CCSC1OC(CO)C(O)C(O)C1O)NC(=O)CCSC1OC(CO)C(O)C(O)C1O)C(=O)O` (stereo partly specified), in assay [1], the affinity corresponds to a Ki of 3.6 µM.
